Measurements reported in patent US7772180B2, “Hepatitis C virus inhibitors” (Bristol-Myers Squibb Company, priority 2006, dated 2010).
Where two headings read alike, the source gives them in different places.

What was measured:
[1] = molecular target: T1, HCV NS3/4A protease complex, BMS strain (UniProt P27958, species not given/STRAIN_BMS); experiment: FRET peptide assay to monitor HCV NS3/4A proteolytic activity (BMS strain); format: biochemical, Hepatitis C virus (genotype 1a); details: read-out: HCV Protease (IC50); NS3/4A BMS strain; activity range class
T1 construct: other: NS3/4A BMS strain; activity range class; numeric values, unit not given; said of H77 and J4L6S; fused on or other part: A three-lysine solubilising tail at the C-terminus of NS4A; A His tag is implied by the pET21b vector and Ni-NTA purification; Both are printed for the H77 and J4L6S constructs and apply to BMS by inference
T1 sequence (P27958 1027-1657, change not shown, one chain of several): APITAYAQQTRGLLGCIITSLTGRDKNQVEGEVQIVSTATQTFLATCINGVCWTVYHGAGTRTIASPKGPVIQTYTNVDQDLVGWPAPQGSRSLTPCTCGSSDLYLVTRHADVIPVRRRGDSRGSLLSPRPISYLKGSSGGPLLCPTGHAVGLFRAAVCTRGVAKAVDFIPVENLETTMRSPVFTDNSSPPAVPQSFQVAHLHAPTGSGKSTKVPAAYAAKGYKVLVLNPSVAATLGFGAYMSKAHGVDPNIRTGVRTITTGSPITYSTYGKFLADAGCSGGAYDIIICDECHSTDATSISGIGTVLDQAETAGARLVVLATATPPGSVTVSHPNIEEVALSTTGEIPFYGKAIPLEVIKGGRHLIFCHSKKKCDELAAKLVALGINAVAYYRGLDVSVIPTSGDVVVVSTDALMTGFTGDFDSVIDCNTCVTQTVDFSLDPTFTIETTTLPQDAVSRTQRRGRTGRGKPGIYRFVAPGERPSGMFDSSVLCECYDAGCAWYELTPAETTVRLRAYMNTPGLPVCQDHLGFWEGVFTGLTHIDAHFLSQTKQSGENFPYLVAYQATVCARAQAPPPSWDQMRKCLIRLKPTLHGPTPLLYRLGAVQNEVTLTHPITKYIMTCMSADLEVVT
Description: HCV NS3 protease complexes, derived from the BMS strain, H77 strain or J4L6S strain, were generated, as described below. These purified recombinant proteins were generated for use in a homogeneous assay (see below) to provide an indication of how effective compounds of the present disclosure would be in inhibiting HCV NS3 proteolytic activity.
Serum from an HCV-infected patient was obtained from Dr. T. Wright, San Francisco Hospital. An engineered full-length cDNA (compliment deoxyribonucleic acid) template of the HCV genome (BMS strain) was constructed from DNA fragments obtained by reverse transcription-PCR (RT-PCR) of serum RNA (ribonucleic acid) and using primers selected on the basis of homology between other genotype 1a strains. From the determination of the entire genome sequence, a genotype 1a was assigned to the HCV isolate according to the classification of Simmonds et al. (See P Simmonds, K A Rose, S Graham, S W Chan, F McOmish, B C Dow, E A Follett, P L Yap and H Marsden, J. Clin. Microbiol., 31(6), 1493-1503 (1993)). […] The infectious clones, H77 (1a genotype) and J4L6S (1b genotype) were obtained from R. Purcell (NIH) and the sequences are published in Genbank (AAB67036, see Yanagi, M., Purcell, R. H., Emerson, S. U. and Bukh, J. Proc. Natl. Acad. Sci. U.S.A. 94(16), 8738-8743 (1997); AF054247, see Yanagi, M., St Claire, M., Shapiro, M., Emerson, S. U., Purcell, R. H. and Bukh, J. Virology 244 (1), 161-172. (1998)).
NS3/4A protease complex-containing fractions were pooled and loaded on a desalting column Superdex-S200 pre-equilibrated with buffer D (25 mM HEPES, pH 7.5, 20% glycerol, 300 mM NaCl, 0.2% Triton X-100, 10 mM βME). Sample was loaded at a flow rate of 1 mL/min. NS3/4A protease complex-containing fractions were pooled and concentrated to approximately 0.5 mg/ml. The purity of the NS3/4A protease complexes, derived from the BMS, H77 and J4L6S strains, were judged to be greater than 90% by SDS-PAGE and mass spectrometry analyses. The enzyme was stored at −80° C., thawed on ice and diluted prior to use in assay buffer.
The purpose of this in vitro assay was to measure the inhibition of HCV NS3 protease complexes, derived from the BMS strain, H77 strain or J4L6S strain, as described above, by compounds of the present disclosure. This assay provides an indication of how effective compounds of the present disclosure would be in inhibiting HCV NS3 proteolytic activity.
In order to monitor HCV NS3/4A protease activity, an NS3/4A peptide substrate was used. The substrate was RET S1 (Resonance Energy Transfer Depsipeptide Substrate; AnaSpec, Inc. cat #22991) (FRET peptide), described by Taliani et al. in Anal. Biochem. 240(2):60-67 (1996). The sequence of this peptide is loosely based on the NS4A/NS4B natural cleavage site for the HCV NS3 protease except there is an ester linkage rather than an amide bond at the cleavage site. The peptide also contains a fluorescence donor, EDANS, near one end of the peptide and an acceptor, DABCYL, near the other end. The fluorescence of the peptide is quenched by […] resonance energy transfer (RET) between the donor and the acceptor, but as the NS3 protease cleaves the peptide the products are released from RET quenching and the fluorescence of the donor becomes apparent.
The peptide substrate was incubated with one of the three recombinant NS3/4A protease complexes, in the absence or presence of a compound of the present disclosure. The inhibitory effects of a compound were determined by monitoring the formation of fluorescent reaction product in real time using a Cytofluor Series 4000.
Assay buffer: 50 mM HEPES, pH 7.5; 0.15 M NaCl; 0.1% Triton; 15% Glycerol; 10 mM βME. Substrate: 2 μM final concentration (from a 2 mM stock solution in DMSO stored at −20° C.). HCV NS3/4A protease type 1a (1b), 2-3 nM final concentration (from a 5 μM stock solution in 25 mM HEPES, pH 7.5, 20% glycerol, 300 mM NaCl, 0.2% Triton-X100, 10 mM βME). […]

[2] = test system: HCV replicon (strain 1b) in HUH-7 cells; experiment: HCV replicon FRET assay; format: cell-based, Hepatitis C virus; details: activity range class
Description: An HCV replicon whole cell system was established as described by Lohmann V, Korner F, Koch J, Herian U, Theilmann L, Bartenschlager R., Science 285(5424): 110-3 (1999). This system enabled us to evaluate the effects of our HCV Protease compounds on HCV RNA replication. Briefly, using the HCV strain 1b sequence described in the Lohmann paper (Assession number: AJ238799), an HCV cDNA was synthesized by Operon Technologies, Inc. (Alameda, Calif.), and the full-length replicon was then assembled in plasmid pGem9zf(+) (Promega, Madison, Wis.) using standard molecular biology techniques. The replicon consists of (i) the HCV 5′ UTR fused to the first 12 amino acids of the capsid protein, (ii) the neomycin phosphotransferase gene (neo), (iii) the IRES from encephalomyocarditis virus (EMCV), and (iv) HCV NS3 to NS5B genes and the HCV 3′ UTR. Plasmid DNAs were linearized with ScaI and RNA transcripts were synthesized in vitro using the T7 MegaScript transcription kit (Ambion, Austin, Tex.) according to manufacturer's directions. In vitro transcripts of the cDNA were transfected into the human hepatoma cell line, HUH-7. […] Resulting cell lines were characterized for positive and negative strand RNA production and protein production over time.
The HCV replicon FRET assay was developed to monitor the inhibitory effects of compounds described in the disclosure on HCV viral replication. HUH-7 cells, constitutively expressing the HCV replicon, were grown in Dulbecco's Modified Eagle Media (DMEM) (Gibco-BRL) containing 10% Fetal calf serum (FCS) (Sigma) and 1 mg/ml G418 (Gibco-BRL). Cells were seeded the night before (1.5×10^4 cells/well) in 96-well tissue-culture sterile plates. Compound and no compound controls were prepared in DMEM containing 4% FCS, 1:100 Penicillin/Streptomysin (Gibco-BRL), 1:100 L-glutamine and 5% DMSO in the dilution plate (0.5% DMSO final concentration in the assay). Compound/DMSO mixes were added to the cells and incubated for 4 days at 37° C. After 4 days, cells were first assessed for cytotoxicity using alamar Blue (Trek Diagnotstic Systems) for a CC50 reading. The toxicity of compound (CC50) was determined by adding 1/10th volume of alamarBlue to the media incubating the cells. After 4 hours, the fluorescence signal from each well was read, with an excitation wavelength at 530 nm and an emission wavelength of 580 nm, using the Cytofluor Series 4000 (Perspective Biosystems). Plates were then rinsed thoroughly with Phosphate-Buffered Saline (PBS) (3 times 150 μl).

[3] = read-out: HCV Pro Replicon (EC50), HCV replicon cell assay
[4] = Hepatitis C virus, Huh-7, read-out: HCV Pro Replicon (EC50), HCV replicon cell assay

Row | Compound | IC50 [1] | EC50 [2, 3] | EC50 [2, 4]
1 | C=C[C@@H]1C[C@]1(NC(=O)[C@@H]1C[C@@H](Oc2nc(OC)cc3cc(OC)ccc23)CN1C(=O)C(Nc1ccccc1)C(C)(C)C)C(=O)NS(=O)(=O)C1CC1 (single isomer, unassigned) [20 second isomer] | 20 to 200 nM | 100 to 1000 nM | 
2 | C=C[C@@H]1C[C@]1(NC(=O)[C@@H]1C[C@@H](Oc2ncc(OC)c3ccc(Cl)cc23)CN1C(=O)C(Nc1cc(C)cc(C)n1)C(C)(C)C)C(=O)NS(=O)(=O)C1CC1 (single isomer, unassigned) [22 first isomer] | 0.6 to 20 nM | 3 to 100 nM | 
3 | C=C[C@@H]1C[C@]1(NC(=O)[C@@H]1C[C@@H](Oc2ncc(OC)c3ccc(Cl)cc23)CN1C(=O)C(Nc1cc(C)cc(C)n1)C(C)(C)C)C(=O)NS(=O)(=O)C1CC1 (single isomer, unassigned) [22 second isomer] | 0.6 to 20 nM | 100 to 1000 nM | 
4 | C=C[C@@H]1C[C@]1(NC(=O)[C@@H]1C[C@@H](Oc2ncc(OC)c3ccc(Cl)cc23)CN1C(=O)C(Nc1cncnc1)C(C)C)C(=O)NS(=O)(=O)C1CC1 (single isomer, unassigned) [24 second isomer] | > 200 nM |  | > 1000 nM
5 | C=C[C@@H]1C[C@]1(NC(=O)[C@@H]1C[C@@H](Oc2ncc(OC)c3ccc(Cl)cc23)CN1C(=O)C(Nc1ccc(C)nc1)C(C)(C)C)C(=O)NS(=O)(=O)C1CC1 (single isomer, unassigned) [26 first isomer] | 0.6 to 20 nM |  | 3 to 100 nM
6 | C=C[C@@H]1C[C@]1(NC(=O)[C@@H]1C[C@@H](Oc2ncc(OC)c3ccc(Cl)cc23)CN1C(=O)C(Nc1cncc(C(F)(F)F)c1)C(C)(C)C)C(=O)NS(=O)(=O)C1CC1 (single isomer, unassigned) [27 second isomer] | 20 to 200 nM |  | 3 to 100 nM
7 | C=C[C@@H]1C[C@]1(NC(=O)[C@@H]1C[C@@H](Oc2ncc(OC)c3ccc(Cl)cc23)CN1C(=O)C(Nc1cccc(C)n1)C(C)(C)C)C(=O)NS(=O)(=O)C1CC1 (single isomer, unassigned) [28 first isomer] | 0.6 to 20 nM | 3 to 100 nM | 
8 | C=C[C@@H]1C[C@]1(NC(=O)[C@@H]1C[C@@H](Oc2ncc(OC)c3ccc(Cl)cc23)CN1C(=O)C(Nc1cccc(C)n1)C(C)(C)C)C(=O)NS(=O)(=O)C1CC1 (single isomer, unassigned) [28 second isomer] | 20 to 200 nM | 100 to 1000 nM | 
9 | C=C[C@@H]1C[C@]1(NC(=O)[C@@H]1C[C@@H](Oc2nccc3cc(OC)ccc23)CN1C(=O)C(Nc1ccc(OC)nc1)C(C)(C)C)C(=O)NS(=O)(=O)C1CC1 (single isomer, unassigned) [407 first isomer] | 0.6 to 20 nM |  | 100 to 1000 nM
10 | C=C[C@@H]1C[C@]1(NC(=O)[C@@H]1C[C@@H](Oc2nccc3cc(OC)ccc23)CN1C(=O)C(Nc1ccc(OC)nc1)C(C)(C)C)C(=O)NS(=O)(=O)C1CC1 (single isomer, unassigned) [407 second isomer] | 0.6 to 20 nM | 100 to 1000 nM | 
11 | C=C[C@@H]1C[C@]1(NC(=O)[C@@H]1C[C@@H](Oc2ncc(OC)c3ccc(Cl)cc23)CN1C(=O)C(Nc1ccc(OC)nc1)C(C)(C)C)C(=O)NS(=O)(=O)C1CC1 (single isomer, unassigned) [408 first isomer] | 0.6 to 20 nM | 3 to 100 nM | 
12 | C=C[C@@H]1C[C@]1(NC(=O)[C@@H]1C[C@@H](Oc2ncc(OC)c3ccc(Cl)cc23)CN1C(=O)C(Nc1ccc(OC)nc1)C(C)(C)C)C(=O)NS(=O)(=O)C1CC1 (single isomer, unassigned) [408 second isomer] | > 200 nM | 100 to 1000 nM | 
13 | C=C[C@@H]1C[C@]1(NC(=O)[C@@H]1C[C@@H](Oc2nccc3cc(OC)ccc23)CN1C(=O)C(Nc1ccc(C(F)(F)F)cn1)C(C)C)C(=O)NS(=O)(=O)C1CC1 (single isomer, unassigned) [Compound 2] | 20 to 200 nM |  | 100 to 1000 nM
14 | C=C[C@@H]1C[C@]1(NC(=O)[C@@H]1C[C@@H](Oc2nccc3cc(OC)ccc23)CN1C(=O)C(Nc1ccccn1)C(C)C)C(=O)NS(=O)(=O)C1CC1 (single isomer, unassigned) [Compound 7] | 20 to 200 nM |  | 3 to 100 nM
15 | C=C[C@@H]1C[C@]1(NC(=O)[C@@H]1C[C@@H](Oc2nccc3cc(OC)ccc23)CN1C(=O)C(Nc1cc(OC)ccn1)C(C)C)C(=O)NS(=O)(=O)C1CC1 (single isomer, unassigned) [Compound 8] | 20 to 200 nM |  | 3 to 100 nM
16 | C=C[C@@H]1C[C@]1(NC(=O)[C@@H]1C[C@@H](Oc2nccc3cc(OC)ccc23)CN1C(=O)C(Nc1cc(C(F)(F)F)ccn1)C(C)C)C(=O)NS(=O)(=O)C1CC1 (single isomer, unassigned) [Compound 9] | 0.6 to 20 nM |  | 3 to 100 nM
17 | C=C[C@@H]1C[C@]1(NC(=O)[C@@H]1C[C@@H](Oc2nccc3cc(OC)ccc23)CN1C(=O)C(Nc1cc(C)ccn1)C(C)C)C(=O)NS(=O)(=O)C1CC1 (single isomer, unassigned) [Compound 10] | 0.6 to 20 nM |  | 3 to 100 nM
